According to patent US20200281873A1, “Adamantane or Bicyclic Monoterpenoid Derivatives for Use in the Treatment of Leishmaniasis” (Commissariat a l'Energie Atomique et aux Energies …, priority 2017, published 2020):
Read-outs that look alike come from different tables or passages of the source.

Assays:
[1] = system: Leishmania infantum axenic amastigotes; assay: Evaluation on Leishmania donovani infantum axenic amastigotes (SYBR Green I); format: cell-based
Description: Protocol for Evaluation on Leishmania donovani infantum Axenic Amastigotes
Amastigote forms of the parasite were suspended to yield 10^7 parasitic cells mL^−1. The maximum final compound concentration used was 100 μM. Triplicates were used for each concentration. Cultures were incubated at 37° C. for 72 h in the dark and under a 5% CO2 atmosphere, then the viability of the amastigotes was assessed using the SYBR® Green I (Invitrogen, France) incorporation method. Parasite growth was determined by using SYBR® Green I, a dye with marked fluorescence enhancement upon contact with parasite DNA. Parasites were lysed and quantified by Direct PCR-Cell Genotyping without DNA isolation protocol (Euromedex, France). 10 μL of lysed parasite solution from each well was added to 40 μL of PCR-Cell reagent containing the SYBR® green I in a qPCR plate of 96 wells, and the contents were mixed. Fluorescence was measured with Mastercycler® ep realplex (Eppendorf, France). Measured fluorescence was compared to that from the range obtained with different parasite densities. The antileishmanial activity was expressed as IC50 in μM (concentration of drug inhibiting 50% of the parasite growth, comparatively to the controls treated with the excipient only).

[2] = system: L. infantum intramacrophagic amastigotes; assay: L. donovani infantum/RAW 264.7 macrophage model (intramacrophagic amastigotes, SYBR Green I); format: cell-based, Leishmania donovani infantum
Description: Protocol for Evaluation on the L. donovani infantum/RAW 264.7 Macrophage Model (Intramacrophagic Amastigotes)
Mouse macrophage cells RAW 264.7 (ATCC) were seeded into a 96-well microplate and maintained in DMEM medium (Applied Biosystems, France) supplemented with 10% heat-inactivated fetal bovine serum in a 5% CO2 incubator at 37° C. for 24 h. Then, the medium was replaced with 100 μL fresh medium containing a suspension of 10^5 L. infantum amastigotes and the incubation time was 16 h. Then, extracellular parasites were eliminated from the medium and 100 μL fresh medium containing compound in various concentrations were added for a 48 h-incubation. Parasite growth was determined by using SYBR® Green I (Life technology, Fisher Scientific, France), a dye with marked fluorescence enhancement upon contact with DNA. The cell lysis suspension was diluted 1:1 in lysis buffer (10 mM NaCl, 1 mM Tris HCl pH8, 2.5 mM EDTA pH 8, 0.05% SDS, 0.01 mg/mL proteinase K and 10×SYBR Green I). Incorporation of SYBR Green I in DNA amplification was measured using the Master epRealplex cycler® (Eppendorf, France) according to the following program to increase the SYBR green incorporation: 90° C. for 1 min, decrease in temperature from 90° C. to 10° C. for 5 min with reading the fluorescence at 10° C. for 1 min and a new reading at 10° C. for 2 min. The EC50 as the concentration inhibiting the parasite growth by 50% was calculated by nonlinear regression using icestimator website 1.2 version: http://www.antimalarial-icestimator.net/MethodIntro.htm.

[3] = Cytotoxicity on RAW 264.7 macrophages; format: cell-based, Mouse; conditions: mouse, RAW 264.7 macrophages; Table I
[4] = system: L. donovani (MHOM/ET/67/HU3) amastigotes; assay: In vivo antileishmanial evaluation, Leishmania donovani/Balb/c mouse model (liver parasite load); conditions: for % reduction of parasite burden in the liver / LDU ± SD (parasites in the liver): Balb/c mice
Description: Compounds VP343, VP370 were evaluated in vivo for their antileishmanial properties by oral and intravenous route on the Leishmania donovani/Balb/c mouse model, comparatively to miltefosine, used as reference drug, according to a previously described protocol (Balaraman et al., 2015). Six- to eight-week-old Balb/c mice (Élevages Janvier, Le Genest Saint Isle, France) were infected intravenously on day 1 with 10^7 L. donovani (MHOM/ET/67/HU3) amastigotes derived from the spleen of hamsters and randomly sorted into four groups of 10 mice and one group of 12 mice as infected controls but not treated. The treatment administered orally or intravenously, started one week post-infection, on day 8, and continued for 5 consecutive days. At day 15, all groups of mice were autopsied and livers and spleens were weighed. Parasite load in the liver was determined by counting the number of amastigotes/500 liver cells in Giemsa-stained impression smears prepared from the liver and applying Stauber's formula. Three researchers counted the slides independently and the results are expressed as the mean values±SD. The parasite burden of treated groups and controls were compared using Student's t-test or the Kruskal-Wallis nonparametric analysis of variance test for comparing two groups. Significance was established for a P value<0.05.

[5] = system: L. infantum intramacrophagic amastigotes; assay: L. donovani infantum/RAW 264.7 macrophage model (intramacrophagic amastigotes, SYBR Green I); format: cell-based, Leishmania donovani infantum; conditions: Table I; ratio
RAW 264.7 macrophages = assay: Cytotoxicity on RAW 264.7 macrophages; format: cell-based, Mouse; conditions: Table I
[6] = In vivo toxicity evaluation by oral route in mice (serum biochemical parameters); set-up: species or system Balb/C female mice; Serum urea: unit not given here
Description: Biochemical parameters relative to VP343 and VP370 toxicity in Balb/C female mice (18-20 g) after a single treatment by oral route at 100 mg/kg under a 0.1 mL volume (=5 mL/kg). Serum were collected one week after the treatment. Excipient: Methylcellulose 1%+Tween 0.1%.
Dosages were performed with a Cobas 800 (Roche/Hitachi) apparatus.

[7] = Leishmania infantum, Table II, 3 different experiments, SYBR Green I method, read-out: IC50 axenic
[8] = Leishmania infantum, Macrophage, Table II, 3 different experiments, SYBR Green I method, read-out: IC50 intramacrophagic
[9] = Leishmania infantum, Table I, 72 h incubation, read-out: Axenic amastigotes IC50
[10] = Leishmania infantum, RAW264.7, Table I, RAW 264.7 macrophages, 48 h incubation, read-out: Intramacrophagic amastigotes IC50
[11] = intravenous route, 10 mg/kg/day × 5
[12] = single oral treatment 100 mg/kg, serum one week after treatment

IC50 [1, 7] [nM]	IC50 [2, 8] [nM]	Compound	other results
7550	210	Cc1ccccc1CN[C@H]1C[C@H]2C[C@@H]([C@@H]1C)C2(C)C [VP391]	–
4860	250	COc1ccc(Br)cc1CN[C@@H]1C[C@@H]2C[C@H]([C@H]1C)C2(C)C [VP330]	–
4100	420	C[C@@H]1[C@@H](NCc2ccoc2)C[C@H]2C[C@@H]1C2(C)C [VP354]	–
13000	570	C[C@@H]1[C@@H](NCc2ncc[nH]2)C[C@H]2C[C@@H]1C2(C)C [VP358]	–
< 500	60	COc1ccc(Br)cc1CN[C@@H]1C[C@H]2CC[C@]1(C)C2(C)C [VP305]	–
30500	190	C[C@@H]1[C@@H](NCc2cccc(Cl)c2)C[C@H]2C[C@@H]1C2(C)C [VP371]	–
9990	190	COc1ccccc1CN[C@H]1C[C@H]2C[C@@H]([C@@H]1C)C2(C)C [VP363]	–
8900	290	C[C@@H]1[C@@H](NCc2ccc(-n3ccnc3)cc2)C[C@H]2C[C@@H]1C2(C)C [VP393]	–

The remaining lines, values behind:

Compound	IC50 [1, 7] [nM]	IC50 [2, 8] [nM]	other results
COc1ccc(Br)cc1/C=N/C12CC3CC(CC(C3)C1)C2 [VP300A]	4530	210	–
CCCCCCCCCCCCCCCCOP(=O)([O-])OCC[N+](C)(C)C [Miltefosine, reference compound]	–	–	IC50 [1, 9]: 1200 ± 500 nM; IC50 [2, 10]: 850 ± 200 nM; CC50 [3]: 12500 ± 1300 nM; % reduction of parasite burden in the liver [4, 11]: 65.9%; LDU ± SD (parasites in the liver) [4, 11]: 0.36 ± 0.08 ×10^8; % reduction of parasite burden in the liver ([4]; oral route, 10 mg/kg/day × 5): 84.6%; LDU ± SD (parasites in the liver) ([4]; oral route, 10 mg/kg/day × 5, autopsy day 15): 0.19 ± 0.09 ×10^9; Selectivity IC50 (Axenic amastigotes)/IC50 (Intramacrophagic amastigotes) [5]: 1.4
C[C@@H]1[C@@H](NCc2ccc3c(c2)Cc2ccccc2-3)C[C@H]2C[C@@H]1C2(C)C [VP397]	9720	500	–
Cc1ccc(-c2ccc(CN[C@H]3C[C@H]4C[C@@H]([C@@H]3C)C4(C)C)cc2)cc1 [VP396]	5560	210	–
C[C@@H]1[C@@H](NCc2ccc(I)cc2)C[C@H]2C[C@@H]1C2(C)C [VP390]	21600	270	–
C[C@@H]1[C@@H](NCc2c[nH]c3ccccc23)C[C@H]2C[C@@H]1C2(C)C [VP359]	> 100000	250	–
C[C@@H]1[C@H](O)[C@@H](C)/C=C/C=C/C=C/C=C/C=C/C=C/C=C/[C@H](O[C@@H]2O[C@H](C)[C@@H](O)[C@H](N)[C@@H]2O)C[C@@H]2O[C@](O)(C[C@@H](O)C[C@@H](O)[C@H](O)CC[C@@H](O)C[C@@H](O)CC(=O)O[C@H]1C)C[C@H](O)[C@H]2C(=O)O [Amphotericin B, reference compound]	–	–	IC50 ([1]; Table I, 72 h incubation, read-out: Axenic amastigotes IC50): 31 ± 2 nM; IC50 ([2]; Table I, RAW 264.7 macrophages, 48 h incubation, read-out: Intramacrophagic amastigotes IC50): 47 ± 5 nM; CC50 (RAW 264.7 macrophages): 4500 ± 400 nM; Selectivity IC50 (Axenic amastigotes)/IC50 (Intramacrophagic amastigotes) [5]: <1
C[C@@H]1[C@@H](NCc2cc(F)ccc2F)C[C@H]2C[C@@H]1C2(C)C [VP381]	58800	170	–
COc1ccc(Br)cc1CNC12CC3CC(CC(C3)C1)C2 [ABMA]	> 100000	7100	IC50 [1, 9]: > 100000 nM; IC50 [2, 10]: 7100 ± 1700 nM; CC50 [3]: 25300 ± 2400 nM; Selectivity IC50 (Axenic amastigotes)/IC50 (Intramacrophagic amastigotes) [5]: >14
C[C@@H]1[C@@H](NCc2cccc(Br)c2)C[C@H]2C[C@@H]1C2(C)C [VP361]	3700	390	–
COc1ccc(OC)c(CN[C@H]2C[C@H]3C[C@@H]([C@@H]2C)C3(C)C)c1 [VP369]	15400	110	–
COc1cccc(OC)c1CN[C@H]1C[C@H]2C[C@@H]([C@@H]1C)C2(C)C [VP370]	36300	40	% reduction of parasite burden in the liver ([4]; oral route, 20 mg/kg/day × 5): 62.7%; LDU ± SD (parasites in the liver) ([4]; oral route, 20 mg/kg/day × 5, autopsy day 15): 0.46 ± 0.12 ×10^9; Activity in vivo by oral route (in words) ([4]; VP343 and VP370 at 20 mg/kg/day×5, VP343 also at 10 mg/kg/day×5, Tukey's multiple comparisons test): significantly active; Serum AST ± SD [6, 12]: 330 ± 68 U/L; Serum AST ± SD (second AST column) [6, 12]: 197 ± 41 U/L; Serum creatinin [6, 12]: <18 µM; Serum urea [6, 12]: 7.9 ± 1.5; Toxicity after single oral treatment (in words) ([6]; single treatment by oral route at 100 mg/kg): did not show toxicity
